# Source: PubChem BioAssay (NCI)
# Several values for one entry are separate records, joined by “and”; a condition that tells them apart may be missing. Equal values may be shown once.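 Test compounds were applied to cells in 96-well plates for 48 hours at 5 doses. Here, GI50 denotes the concentration required for 50% inhibition of growth. TGI is the concentration that stops growth completely.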
# Assays:
# Experiment in all cases: growth of human tumour cells (NCI), 48 h
# [1] = tested on: OVCAR-5 ovarian
# [2] = tested on: MOLT-4 leukemia
# [3] = tested on: KM12 colon
# [4] = tested on: UO-31 renal
# [5] = tested on: CAKI-1 renal
# [6] = tested on: MALME-3M melanoma
# [7] = tested on: NCI-H23 lung
# [8] = tested on: NCI-H226 lung
# [9] = tested on: T-47D breast
# [10] = tested on: A498 renal
SMILES,TGI [1],TGI [2],TGI [3],TGI [4],TGI [5],TGI [6],TGI [7],TGI [8],GI50 [1],GI50 [2],GI50 [9],TGI [9],GI50 [3],GI50 [4],GI50 [6],GI50 [7],GI50 [8],GI50 [10],TGI [10],GI50 [5]
COc1ccc2ccc3c(c2c1)CN1CCc2cc(OC)c(OC)cc2C1C3 (centres undefined),> 100 µM,> 100 µM,> 100 µM,> 100 µM,> 100 µM,> 100 µM,> 100 µM,> 100 µM,–,–,–,–,–,–,–,–,–,–,–,–
Cc1ccc(CS/C(=C\c2ccc([N+](=O)[O-])cc2)C(=O)c2ccc(F)cc2)cc1,9.01 µM,> 100 µM,5.13 µM,13.3 µM,–,10.4 µM,41 µM,15 µM,2.6 µM,3.35 µM,4.53 µM,22.4 µM,2.16 µM,2.72 µM,2.86 µM,4.78 µM,3.17 µM,15.6 µM,36 µM,–
CCCCCCCCCCCCCC(=O)OC1CC(=O)OC1CO (centres undefined),> 100 µM,52.1 µM,56.7 µM,92.6 µM,> 100 µM,> 100 µM,–,–,–,–,–,–,–,–,–,–,–,–,> 100 µM,–
CC[CH2][Pb]([CH2]CC)([CH2]CC)[O]C(=O)C(F)(F)F,0.636 µM,0.627 µM,0.33 µM,0.409 µM,0.501 µM,0.348 µM,–,–,0.18 µM,0.183 µM,–,–,0.125 µM,0.141 µM,0.0894 µM,–,–,0.0579 µM,0.245 µM,0.16 µM
CSc1ccc(C2=NN(C(C)=O)C(c3cc(C)cs3)C2)cc1 (centres undefined),> 100 µM,44.1 µM,> 100 µM,> 100 µM,> 100 µM,97.5 µM,> 100 µM,> 100 µM,44.4 µM,7.26 µM,13 µM,> 100 µM,24 µM,19.9 µM,25.5 µM,29.9 µM,21.8 µM,–,–,28.4 µM
Cc1ccc(-c2c3c([nH]c(=O)c2C#N)-c2cc(F)ccc2OC3)cc1,> 100 µM,> 100 µM,> 100 µM,> 100 µM,> 100 µM,–,–,–,> 100 µM,97.5 µM,80.4 µM,> 100 µM,36.1 µM,41.3 µM,–,–,–,> 100 µM,> 100 µM,82.1 µM
Cc1cc2c(cc1C)[n+](=O)c(C(=O)CC(=O)C(=O)Nc1c(C(C)C)cccc1C(C)C)c(C)n2[O-],> 100 µM,> 100 µM,> 100 µM,> 100 µM,> 100 µM,> 100 µM,> 100 µM,> 100 µM,–,–,–,–,–,–,–,–,–,–,> 100 µM,–
O=C1c2cccc(NCCN=Cc3cc(O)ccc3O)c2C(=O)c2c(NCCN=Cc3cc(O)ccc3O)cccc21,5.14 µM,1.46 µM,–,6.13 µM,–,–,3.49 µM,3.62 µM,2.12 µM,0.319 µM,2.35 µM,7.35 µM,–,1.71 µM,–,1.44 µM,1.21 µM,1.41 µM,3.1 µM,–
CC1=C(CCCNS(C)(=O)=O)C2=C(C)C3(CC3)[C@@](C)(O)C(=O)C2=C1,7.62 µM,> 100 µM,> 100 µM,2.3 µM,–,2.62 µM,1.83 µM,5.79 µM,0.654 µM,37.2 µM,0.563 µM,6.02 µM,3.99 µM,0.5 µM,0.776 µM,0.269 µM,1.04 µM,1.05 µM,2.77 µM,–
Cc1ccc(S(=O)(=O)C(CC(=O)N2CCCC2)C(=O)c2ccccc2)cc1 (centres undefined),> 100 µM,> 100 µM,> 100 µM,> 100 µM,> 100 µM,> 100 µM,> 100 µM,–,–,–,–,–,–,–,–,–,–,–,–,–
Clc1ccc(C2N3CCCCC3[C@@H]3c4[nH]c5ccccc5c4CCN23)cc1 (some centres undefined),> 100 µM,> 100 µM,–,> 100 µM,> 100 µM,90.4 µM,> 100 µM,–,–,–,–,–,–,–,–,–,–,–,> 100 µM,–
O=C(CN1CCOCC1)Nc1ccc(Cn2nnc3c2C(=O)c2nnn(Cc4ccc(NC(=O)CN5CCOCC5)cc4)c2C3=O)cc1,4.29 µM,0.705 µM,5.23 µM,> 100 µM,> 100 µM,0.469 µM,3.61 µM,3.93 µM,1.94 µM,0.254 µM,–,–,0.959 µM,26 µM,0.178 µM,0.802 µM,1.54 µM,1.97 µM,4.39 µM,> 45 µM
COc1cccc(-c2cc(=O)c3cc(N(C)C)ccc3[nH]2)c1,> 100 µM,0.0401 µM and 0.0259 µM,1.06 µM and 0.119 µM and 0.766 µM,> 100 µM and 78.1 µM,–,> 100 µM,–,–,–,0.0435 µM and 0.00642 µM,–,–,0.0334 µM and 0.0159 µM,0.0642 µM and 0.0126 µM and 0.0132 µM,0.00987 µM and 0.00403 µM,–,–,–,–,–
COc1cc2c3c(n(C)c(=O)c2cc1OC)-c1cc2c(cc1/C3=C\CCCN1C(=O)c3ccccc3C1=O)OCO2,> 40 µM,5.17 µM,> 40 µM,–,> 40 µM,> 40 µM,> 40 µM,–,> 40 µM,1.18 µM,> 40 µM,> 40 µM,5.1 µM,–,> 40 µM,> 40 µM,–,> 40 µM,> 40 µM,5.44 µM
CC(=O)Nc1ccccc1Sc1ccccc1,> 100 µM,> 100 µM,> 100 µM,> 100 µM,> 100 µM,> 100 µM,> 100 µM,> 100 µM,–,–,–,–,–,–,–,–,–,–,> 100 µM,–
NCC(=O)NS(=O)(=O)OC[C@H]1O[C@@H](n2cnc3c(N)ncnc32)[C@H](O)[C@@H]1O,4.1 µM,8.86 µM,14.4 µM,3.25 µM,–,3.87 µM,7.04 µM,3.77 µM,0.75 µM,2.62 µM,2.32 µM,9.21 µM,3.22 µM,1.71 µM,1.92 µM,2.56 µM,2 µM,1.6 µM,3.21 µM,–
